Measurements published in patent US20230076733A1, “Combination Therapy” (AGENCY FOR SCIENCE, TECHNOLOGY AND RESEARCH, priority 2020, published 2023).
pIC50: −log10 of the molar value. Values joined by “and” are separate entries in the source; they are usually repeats but may differ in a detail not shown here. Identical values can stand only once.

Experiments:
TFK-1 cells = experiment: soft agar colony formation assay, TFK-1 cells; assay type: cell-based; details: for Colony count: duplicate wells; for pIC50: TFK-1 cells, pre-determined by dose-response assay
Experimental: The IC50 and EC50 values for each combination partner (a) and (b) with the specific cell lines are determined from the response plot. A dose-response assay for each combination partner and the combination at different concentrations based on the IC50 values of each combination partner was performed. Computed EC50-EC95 values were then generated by a software (as disclosed herein) based on the drug concentration and the respective colony growth numbers.
6. Cell lines used and number of cells seeded per well
(1) Base Layer—0.6% Agar per 300 μL per well.
Microwave the agar for 1-2 min so that it is completely melted. Add 5.4 ml of the melted agar into 21.6 ml of pre-warmed media (All media and agar preparation is made in excess for 2.5 plates). Aliquot 300 μl of the suspension into each well, avoiding the first and last columns of the plates. Fill the first and last columns of wells with 500 μl of sterile water or phosphate buffered saline. Incubate the plates in 37° C. incubator for 45 min-1 hr to allow agar to solidify.
(2) Middle Layer— 0.3% Agar plus corresponding number of cells per well
Trypsinize the adherent cells and suspend them in 5 ml of media. Determine the number of cells in the suspension and calculate the volume of cell suspension required for seeding. Mix the agar and media together first, excluding the volume of cell suspension. Add the cell suspension last into the mixture. Mix well and aliquot 250 μl into each well containing the base layer. Incubate the plates in a 37° C. incubator for 1-1.5 hrs to allow the agar to solidify.
Prepare the required concentration of compounds based on the IC50 values of each drug.
(Pre-determine the IC50 values for each drug with the corresponding cell-line using a dose-response assay)
Row A& B: Aliquot 250 μl of diluted Drug A per well
Row C&D: Aliquot 250 μl of diluted Drug B per well
Row E& F: Aliquot 250 μl of diluted Drug A and B mixed at 1:1 ratio for each well
Assay Results Analysis Method • 1. Score the colonies after 2 to 3 weeks depending on the colony forming status for different cell line. • 2. Before scoring the colonies, add 35 μl MTT (5 mg/ml) to the wells with cells and incubate at 37° C. for 2-3 hrs depending on the intensity of colour development. • 3. Once the colonies are stained, count the total number of colonies formed using the Oxford Optronix GelCount® instrument. • 4. Average the total number of colonies obtained for each drug dose point and represent it as a fraction over the control. This represents the fraction of colony growth. […] Incorporate the fraction of inhibition and the corresponding dose values into the Chou Talalay Software available online (http://www.combosyn.com/) to obtain the combination index values. • 6. The combination index values will give an indication as to whether the combined drugs are synergistic, antagonistic or additive in the treated cells, as shown in Table 2 below.
FIG. 10 illustrates a dose-response assay plate containing TFK-1 cells (Test 1) after testing compounds at different concentrations based on the IC50 values of each compound. TFK-1 is a cell line established from cholangiocarcinoma (bile duct adenocarcinoma).

PA-TU-8988T cells = experiment: soft agar colony formation assay, PA-TU-8988T cells; assay type: cell-based; details: for pIC50: PA-TU-8988T cells, pre-determined by dose-response assay; for Colony count: PA-TU-8988T, duplicate wells
Experimental: The IC50 and EC50 values for each combination partner (a) and (b) with the specific cell lines are determined from the response plot. A dose-response assay for each combination partner and the combination at different concentrations based on the IC50 values of each combination partner was performed. Computed EC50-EC95 values were then generated by a software (as disclosed herein) based on the drug concentration and the respective colony growth numbers. 6. Cell lines used and number of cells seeded per well [table] (1) Base Layer—0.6% Agar per 300 μL per well. Microwave the agar for 1-2 min so that it is completely melted. Add 5.4 ml of the melted agar into 21.6 ml of pre-warmed media (All media and agar preparation is made in excess for 2.5 plates). Aliquot 300 μl of the suspension into each well, avoiding the first and last columns of the plates. Fill the first and last columns of wells with 500 μl of sterile water or phosphate buffered saline. Incubate the plates in 37° C. incubator for 45 min-1 hr to allow agar to solidify. (2) Middle Layer— 0.3% Agar plus corresponding number of cells per well Trypsinize the adherent cells and suspend them in 5 ml of media. Determine the number of cells in the suspension and calculate the volume of cell suspension required for seeding. Mix the agar and media together first, excluding the volume of cell suspension. Add the cell suspension last into the mixture. Mix well and aliquot 250 μl into each well containing the base layer. Incubate the plates in a 37° C. incubator for 1-1.5 hrs to allow the agar to solidify. […] Prepare the required concentration of compounds based on the IC50 values of each drug. (Pre-determine the IC50 values for each drug with the corresponding cell-line using a dose-response assay) Row A& B: Aliquot 250 μl of diluted Drug A per well Row C&D: Aliquot 250 μl of diluted Drug B per well Row E& F: Aliquot 250 μl of diluted Drug A and B mixed at 1:1 ratio for each well Assay Results Analysis Method • 1. Score the colonies after 2 to 3 weeks depending on the colony forming status for different cell line. • 2. Before scoring the colonies, add 35 μl MTT (5 mg/ml) to the wells with cells and incubate at 37° C. for 2-3 hrs depending on the intensity of colour development. • 3. Once the colonies are stained, count the total number of colonies formed using the Oxford Optronix GelCount® instrument. • 4. Average the total number of colonies obtained for each drug dose point and represent it as a fraction over the control. This represents the fraction of colony growth. […] Incorporate the fraction of inhibition and the corresponding dose values into the Chou Talalay Software available online (http://www.combosyn.com/) to obtain the combination index values. • 6. The combination index values will give an indication as to whether the combined drugs are synergistic, antagonistic or additive in the treated cells, as shown in Table 2 below. FIG. 12 illustrates a dose-response assay plate containing PA-TU-8988T cells (Test 1) after testing compounds at different concentrations based on the IC50 values of each compound. […] is a cell line established from pancreatic adenocarcinoma (pancreatic cancer).

[1] = TFK-1, Test 1, 0.25x IC50: dose Olaparib 4.5, Ex 1 3, combination both 1:1
[2] = TFK-1, Test 1, 0.5x IC50: dose Olaparib 9, Ex 1 6, combination both 1:1
[3] = TFK-1, Test 1, 1x IC50: dose Olaparib 18, combination both 1:1
[4] = TFK-1, Test 1, 2x IC50: dose Olaparib 36, Ex 1 24, combination both 1:1
[5] = TFK-1, Test 1, 4x IC50: dose Olaparib 72, Ex 1 48, combination both 1:1
[6] = TFK-1, Test 2, 0.25x IC50: dose Olaparib 4.5, Ex 1 3, combination both 1:1
[7] = TFK-1, Test 2, 0.5x IC50: dose Olaparib 9, Ex 1 6, combination both 1:1
[8] = TFK-1, Test 2, 1x IC50: dose Olaparib 18, combination both 1:1
[9] = TFK-1, Test 2, 2x IC50: dose Olaparib 36, Ex 1 24, combination both 1:1
[10] = TFK-1, Test 2, 4x IC50: dose Olaparib 72, Ex 1 48, combination both 1:1
[11] = Test 1, 0.25x IC50: dose Olaparib 0.2525, Ex 1 0.275, combination both 1:1
[12] = Test 1, 0.5x IC50: dose Olaparib 0.505, Ex 1 0.55, combination both 1:1
[13] = Test 1, 1x IC50: dose Olaparib 1.01, Ex 1 1.1, combination both 1:1
[14] = Test 1, 2x IC50: dose Olaparib 2.02, Ex 1 2.2, combination both 1:1
[15] = Test 1, 4x IC50: dose Olaparib 4.04, Ex 1 4.4, combination both 1:1
[16] = Test 2, 0.25x IC50: dose Olaparib 0.2525, Ex 1 0.275, combination both 1:1
[17] = Test 2, 0.5x IC50: dose Olaparib 0.505, Ex 1 0.55, combination both 1:1
[18] = Test 2, 1x IC50: dose Olaparib 1.01, Ex 1 1.1, combination both 1:1
[19] = Test 2, 2x IC50: dose Olaparib 2.02, Ex 1 2.2, combination both 1:1
[20] = Test 2, 4x IC50: dose Olaparib 4.04, Ex 1 4.4, combination both 1:1

Row | SMILES | Colony count (TFK-1 cells; [1]) | Colony count (TFK-1 cells; [2]) | Colony count (TFK-1 cells; [3]) | Colony count (TFK-1 cells; [4]) | Colony count (TFK-1 cells; [5]) | Colony count (TFK-1 cells; [6]) | Colony count (TFK-1 cells; [7]) | Colony count (TFK-1 cells; [8]) | Colony count (TFK-1 cells; [9]) | Colony count (TFK-1 cells; [10]) | pIC50 (TFK-1 cells) | Colony count (PA-TU-8988T cells; [11]) | Colony count (PA-TU-8988T cells; [12]) | Colony count (PA-TU-8988T cells; [13]) | Colony count (PA-TU-8988T cells; [14]) | Colony count (PA-TU-8988T cells; [15]) | Colony count (PA-TU-8988T cells; [16]) | Colony count (PA-TU-8988T cells; [17]) | Colony count (PA-TU-8988T cells; [18]) | Colony count (PA-TU-8988T cells; [19]) | also measured
1 | Cn1c(=O)c2c(ncn2CC(=O)Nc2ccc(-c3ccccc3)nn2)n(C)c1=O [Ex 1, 2-(1,3-dimethyl-2,6-dioxo-2,3-dihydro-1H-purin-7 (6H)-yl)-N-(6-phenylpyridazin-3-yl)acetamide] | 921 and 950 | 805 and 700 | 557 and 581 | 402 and 384 | 239 and 198 | 916 and 840 | 770 and 818 | 567 and 559 | 336 and 249 | 101 and 148 | 4.92 | 420 and 494 | 343 and 488 | 215 and 393 | 250 and 311 | 212 and 296 | 200 and 237 | 143 and 227 | 156 and 209 | 155 and 215 | pIC50 (PA-TU-8988T cells): 5.96; Colony count (PA-TU-8988T cells; [20]): 125 and 186
2 | O=C(c1cc(Cc2n[nH]c(=O)c3ccccc23)ccc1F)N1CCN(C(=O)C2CC2)CC1 [Olaparib, reference compound] | 759 and 668 | 674 and 531 | 381 and 437 | 270 and 204 | 96 and 75 | 737 and 676 | 698 and 621 | 447 and 437 | 267 and 213 | 148 and 75 | 4.74 | 537 and 426 | 425 and 331 | 398 and 327 | 411 and 325 | 362 and 307 | 222 and 170 | 180 and 155 | 146 and 150 | 136 and 143 | pIC50 (PA-TU-8988T cells; Homo sapiens, PaTu 8988t): 6.00; Colony count (PA-TU-8988T cells; [20]): 180 and 125
